Measurements: PMC9515143, “Phosphorylation of Jhd2 by the Ras-cAMP-PKA(Tpk2) pathway regulates histone modifications and autophagy” (Nature Communications, 2022)

Tested on: H2Bub
Assay: Western blot of H2B monoubiquitination (H2Bub) after glucose
Type: cell-based, budding yeast (Saccharomyces cerevisiae)
Settings: for H2Bub/H2B: 0.5 hr
Experimental: To examine the effect of glucose on histone modifications, yeast cells were grown in 2% glucose-containing YPD (Yeast Extract Peptone Dextrose) medium until OD600 of 0.7–1.0. Cells were then collected, washed and resuspended in YP medium for 3 hr followed by treatment with different concentrations of glucose for 0.5 hr. For 1NM-PP1 (MCE, HY-13804) treatment, cells were grown in 2% YPD until OD600 of 0.7–1.0. Cells were then treated with 25 μM 1NM-PP1 for 0.5 hr. For FBP and pyruvate treatment, cells were pre-treated with Zymolase (Mpbio, 08320921) to increase the permeability. In brief, cells were grown in YPD medium until OD600 of 0.7–1.0, centrifuged and resuspended in 1 ml SB buffer (100 mM Sorbitol, 20 mM Tris pH 7.4). 10 μl Zymolase was then added and incubated at 30 °C for 15 min. The spheroplasts were washed and cultured in YPD medium containing different concentrations of FBP and pyruvate for 3 hr.
Cells were grown in 5 ml YPD or selective medium until OD600 of 0.7–1.0. Cells were harvested and lysed in alkaline lysis buffer (2 M NaOH, 8% 2-mercaptoethanol). After centrifugation, the protein pellet was resuspended in 150 μl 2×SDS-sample buffer. Protein samples were separated by 8–15% SDS-PAGE and transferred to PVDF membrane. The blots were probed with primary antibodies followed by incubation with horseradish peroxidase-labelled IgG secondary antibodies. The protein bands were visualized using the ECL Chemiluminescence Detection Kit (Bio-Rad, 170–5061) and quantified with Image J software (v.1.8.0).
Supplementary Fi g . […] WT (a) and H2B-F LA G cel ls (b) wer e grown in YPD medium until OD600 of 0.7.
Cells were th en tr eat ed with YP medium supplement ed with differen t concentrations of glucos e for 0.5 hr. C ells were h ar vested an d the ex tract ed histones w er e anal yz ed by Western blots with indicat ed ant ibodies. To d et ect H2B monoubiquitination, H2B-F LAG strain w as used and d et ect ed with anti -F LAG ant ibody. Th e upper bands ar e monoubiquitinat ed H2B-F LAG. c E ff e c t of gl ucose on histone modifications in WT and ubp8∆ ubp10∆ mutant. WT and ubp8∆ ubp10∆ mut ant w er e gro wn in YPD medium unti l OD600 of 0.7. Cells wer e th en treated with YP medium supplem ent ed with di fferent con cen tr ations of gl u cos e fo r 0.5 hr. d Gluco se has no effect on the activit y of C O M PA S S . Spp1-TA P cells wer e grown in YPD medium until OD600 of 1.5. Cells were h arv est ed and then treat ed with YP + 0.05% glucos e and YP + 4% gl u cos e for 0.5 hr. Spp1-cont aining COMPASS (Spp1-CBP ) was then p urifi ed by tand em affinit y puri fi cati on ( TA P ) . Th e in vitro hi stone meth yltransferase assa y was p er form ed wit h purifi ed C O M PA S S and in vitro assembl ed nucl eosom es. e E ff e c t of the m TO R pathwa y on H3K4 meth ylation. […]
For Supplem ent ar y Fi g. 1b, e-g, i-k, d at a r ep res ent means ± SEM; n=3 i ndependent ex perim ents. For Supplem entar y Fi g. 1c, d ata represent means ± SEM; n=4 independent ex periments. Tw o -sided t-tests were used for statistical analysis.

OC[C@H]1OC(O)[C@H](O)[C@@H](O)[C@@H]1O (stereo partly shown) [glucose]
H2Bub/H2B (0.5% glucose, relative to 0.05% glucose = 1, replicate 1): 1.541 | H2Bub/H2B (0.5% glucose, relative to 0.05% glucose = 1, replicate 2): 1.389 | H2Bub/H2B (0.5% glucose, relative to 0.05% glucose = 1, replicate 3): 1.9778 | H2Bub/H2B (1% glucose, relative to 0.05% glucose = 1, replicate 1): 1.812 | H2Bub/H2B (1% glucose, relative to 0.05% glucose = 1, replicate 2): 3.264 | H2Bub/H2B (1% glucose, relative to 0.05% glucose = 1, replicate 3): 4.024 | H2Bub/H2B (2% glucose, relative to 0.05% glucose = 1, replicate 1): 2.484 | H2Bub/H2B (2% glucose, relative to 0.05% glucose = 1, replicate 2): 4.332 | H2Bub/H2B (2% glucose, relative to 0.05% glucose = 1, replicate 3): 3.575 | H2Bub/H2B (4% glucose, relative to 0.05% glucose = 1, replicate 1): 3.885 | H2Bub/H2B (4% glucose, relative to 0.05% glucose = 1, replicate 2): 5.306 | H2Bub/H2B (4% glucose, relative to 0.05% glucose = 1, replicate 3): 5.56 | H2Bub level (H2B-FLAG cells, glucose 0.5 hr, Western blot): induced H2Bub
